The record followed here is publication PMC2806030, “Inhibition of mammalian S6 kinase by resveratrol suppresses autophagy” (Aging (Albany NY), 2009).

Assay in all cases: biochemical
What all share (set-up): Upstate KinaseProfiler in vitro kinase activity assay, per cent of DMSO control
Holding throughout (conditions): read-out: Activity (% of Control)

One test has as its target T1, Abl(T315I)(h) (Homo sapiens, UniProt P00519, T315I).
T1 construct: gene ABL1
Summed up:
(§1)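 Profiling done with Upstate KinaseProfiler service across 100 kinases, resveratrol tested at 20 μM; activity expressed relative to control.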

A further test addresses CDK3/cyclinE(h) (Homo sapiens, UniProt Q00526). Summed up: as §1
The target in another test is CDK6/cyclinD3(h) (Homo sapiens, UniProt Q00534). The method, boiled down: as §1
Another test has as its target FGFR1(h) (Homo sapiens, UniProt P11362). Summed up:
as §1

The next test addresses Flt3(h) (Homo sapiens, UniProt P36888). Summed up:
as §1

The next test deals with T2, GSK3α(h) (Homo sapiens, UniProt P49840).
T2 construct: gene GSK3A
T2 sequence (P49840 whole entry): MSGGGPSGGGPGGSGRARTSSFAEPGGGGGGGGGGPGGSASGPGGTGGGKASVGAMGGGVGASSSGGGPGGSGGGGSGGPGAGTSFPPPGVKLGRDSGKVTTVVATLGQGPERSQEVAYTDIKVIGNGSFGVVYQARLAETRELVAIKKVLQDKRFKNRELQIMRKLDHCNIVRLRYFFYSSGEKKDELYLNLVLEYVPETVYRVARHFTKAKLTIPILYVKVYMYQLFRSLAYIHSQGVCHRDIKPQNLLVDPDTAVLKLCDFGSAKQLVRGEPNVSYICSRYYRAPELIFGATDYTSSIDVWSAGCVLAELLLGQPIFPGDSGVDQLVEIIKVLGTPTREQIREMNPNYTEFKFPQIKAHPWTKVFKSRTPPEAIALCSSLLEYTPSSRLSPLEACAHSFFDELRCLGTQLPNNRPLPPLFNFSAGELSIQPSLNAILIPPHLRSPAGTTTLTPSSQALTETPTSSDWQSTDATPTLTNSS
Summed up:
as §1

The target of a further test is T3, IR(h) (Homo sapiens, UniProt P06213).
T3 construct: gene INSR
T3 sequence (P06213 whole entry): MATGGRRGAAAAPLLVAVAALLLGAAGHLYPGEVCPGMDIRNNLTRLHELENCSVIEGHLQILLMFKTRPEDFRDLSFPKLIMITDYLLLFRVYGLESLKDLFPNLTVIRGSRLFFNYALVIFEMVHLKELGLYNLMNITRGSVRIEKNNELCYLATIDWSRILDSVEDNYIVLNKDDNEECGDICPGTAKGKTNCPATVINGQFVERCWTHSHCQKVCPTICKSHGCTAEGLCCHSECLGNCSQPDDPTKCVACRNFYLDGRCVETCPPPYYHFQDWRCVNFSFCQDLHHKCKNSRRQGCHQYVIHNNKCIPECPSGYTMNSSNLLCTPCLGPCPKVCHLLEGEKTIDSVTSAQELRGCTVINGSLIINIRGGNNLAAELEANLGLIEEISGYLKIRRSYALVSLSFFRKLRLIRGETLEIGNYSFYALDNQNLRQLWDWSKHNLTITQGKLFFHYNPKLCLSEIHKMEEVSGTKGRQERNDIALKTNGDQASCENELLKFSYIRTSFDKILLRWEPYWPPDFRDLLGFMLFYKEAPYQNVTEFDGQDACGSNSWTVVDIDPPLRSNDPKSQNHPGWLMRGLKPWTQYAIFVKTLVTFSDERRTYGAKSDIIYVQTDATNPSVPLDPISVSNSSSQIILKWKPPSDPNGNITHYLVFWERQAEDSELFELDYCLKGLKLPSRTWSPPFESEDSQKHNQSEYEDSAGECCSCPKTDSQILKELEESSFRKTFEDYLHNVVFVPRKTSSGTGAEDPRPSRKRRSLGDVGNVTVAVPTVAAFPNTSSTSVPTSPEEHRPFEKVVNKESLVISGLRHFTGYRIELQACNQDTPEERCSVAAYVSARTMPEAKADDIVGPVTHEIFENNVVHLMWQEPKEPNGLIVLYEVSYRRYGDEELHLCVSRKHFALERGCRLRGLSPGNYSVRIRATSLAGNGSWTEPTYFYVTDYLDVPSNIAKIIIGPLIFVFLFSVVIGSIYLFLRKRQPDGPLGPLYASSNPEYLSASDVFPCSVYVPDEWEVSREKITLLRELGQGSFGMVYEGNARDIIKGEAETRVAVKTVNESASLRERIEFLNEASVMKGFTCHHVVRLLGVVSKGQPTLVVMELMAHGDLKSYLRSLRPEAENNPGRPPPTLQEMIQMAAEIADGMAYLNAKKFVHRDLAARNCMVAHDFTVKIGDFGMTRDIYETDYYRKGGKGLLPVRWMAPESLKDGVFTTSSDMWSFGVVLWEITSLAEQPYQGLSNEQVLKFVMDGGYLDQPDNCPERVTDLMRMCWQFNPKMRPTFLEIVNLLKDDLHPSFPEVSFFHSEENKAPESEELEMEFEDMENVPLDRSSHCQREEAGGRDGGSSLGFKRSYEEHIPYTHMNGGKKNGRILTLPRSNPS
The method, boiled down: as §1

The target of a further test is Jak2 (Homo sapiens, UniProt O60674). Summed up:
as §1

For another test, the target named is T4, MSK1(h) (Homo sapiens, UniProt O75582).
T4 construct: gene RPS6KA5
T4 sequence (O75582 whole entry): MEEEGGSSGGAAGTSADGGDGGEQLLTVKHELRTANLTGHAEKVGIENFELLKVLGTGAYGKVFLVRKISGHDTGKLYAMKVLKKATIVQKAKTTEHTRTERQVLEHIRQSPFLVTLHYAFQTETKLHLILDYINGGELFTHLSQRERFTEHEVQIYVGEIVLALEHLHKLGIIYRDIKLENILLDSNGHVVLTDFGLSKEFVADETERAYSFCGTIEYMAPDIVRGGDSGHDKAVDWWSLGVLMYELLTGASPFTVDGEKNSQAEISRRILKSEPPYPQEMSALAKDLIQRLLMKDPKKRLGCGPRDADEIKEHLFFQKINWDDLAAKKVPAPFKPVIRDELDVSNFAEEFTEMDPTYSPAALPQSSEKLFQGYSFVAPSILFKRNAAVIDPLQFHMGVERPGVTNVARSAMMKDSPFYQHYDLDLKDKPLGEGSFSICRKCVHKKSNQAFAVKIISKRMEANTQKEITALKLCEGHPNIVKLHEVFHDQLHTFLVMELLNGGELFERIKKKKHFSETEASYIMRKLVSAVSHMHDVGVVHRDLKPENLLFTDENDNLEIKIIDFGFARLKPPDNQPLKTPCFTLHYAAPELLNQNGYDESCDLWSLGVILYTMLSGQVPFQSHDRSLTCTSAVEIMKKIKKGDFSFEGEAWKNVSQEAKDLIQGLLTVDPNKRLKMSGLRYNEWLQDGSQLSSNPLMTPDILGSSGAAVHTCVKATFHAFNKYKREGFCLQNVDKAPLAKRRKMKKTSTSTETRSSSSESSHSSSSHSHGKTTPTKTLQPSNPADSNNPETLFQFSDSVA
Summed up:
as §1

A further test addresses T5, MSK2(h) (Homo sapiens, UniProt O75676).
T5 construct: gene RPS6KA4
The method, boiled down:
as §1

The target in the next test is NEK7(h) (Homo sapiens, UniProt Q8TDX7). The method, boiled down: as §1
The target in another test is PAK6(h) (Homo sapiens, UniProt Q9NQU5). Summed up:
as §1

The target of another test is T6, PDGFRß(h) (Homo sapiens, UniProt P09619).
T6 construct: gene PDGFRB
Summed up:
as §1

Another test addresses T7, PKCγ(h) (Homo sapiens, UniProt P05129).
T7 construct: gene PRKCG
Summed up:
as §1

A further test has as its target T8, PKG1ß(h) (Homo sapiens, UniProt Q13976).
T8 construct: gene PRKG1; isoform beta
The method, boiled down: as §1

For another test, the target named is T9, SAPK2a(h) (Homo sapiens, UniProt Q16539).
T9 construct: gene MAPK14
T9 sequence (Q16539 whole entry): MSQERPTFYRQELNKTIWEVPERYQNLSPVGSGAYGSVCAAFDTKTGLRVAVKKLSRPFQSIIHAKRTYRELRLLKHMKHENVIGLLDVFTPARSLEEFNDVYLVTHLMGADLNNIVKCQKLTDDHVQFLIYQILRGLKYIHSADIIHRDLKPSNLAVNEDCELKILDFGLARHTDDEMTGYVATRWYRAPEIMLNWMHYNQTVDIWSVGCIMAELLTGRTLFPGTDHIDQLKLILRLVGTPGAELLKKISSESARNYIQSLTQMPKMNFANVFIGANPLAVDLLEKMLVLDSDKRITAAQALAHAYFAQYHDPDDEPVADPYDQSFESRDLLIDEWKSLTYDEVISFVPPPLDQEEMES
Summed up:
as §1

In a further test the target is T10, TrkA(h) (Homo sapiens, UniProt P04629).
T10 construct: gene NTRK1
The method, boiled down:
as §1

The target in another test is T11, TrkB(h) (Homo sapiens, UniProt Q16620).
T11 construct: gene NTRK2
The method, boiled down:
as §1

Sequence of Jak2 (O60674 whole entry): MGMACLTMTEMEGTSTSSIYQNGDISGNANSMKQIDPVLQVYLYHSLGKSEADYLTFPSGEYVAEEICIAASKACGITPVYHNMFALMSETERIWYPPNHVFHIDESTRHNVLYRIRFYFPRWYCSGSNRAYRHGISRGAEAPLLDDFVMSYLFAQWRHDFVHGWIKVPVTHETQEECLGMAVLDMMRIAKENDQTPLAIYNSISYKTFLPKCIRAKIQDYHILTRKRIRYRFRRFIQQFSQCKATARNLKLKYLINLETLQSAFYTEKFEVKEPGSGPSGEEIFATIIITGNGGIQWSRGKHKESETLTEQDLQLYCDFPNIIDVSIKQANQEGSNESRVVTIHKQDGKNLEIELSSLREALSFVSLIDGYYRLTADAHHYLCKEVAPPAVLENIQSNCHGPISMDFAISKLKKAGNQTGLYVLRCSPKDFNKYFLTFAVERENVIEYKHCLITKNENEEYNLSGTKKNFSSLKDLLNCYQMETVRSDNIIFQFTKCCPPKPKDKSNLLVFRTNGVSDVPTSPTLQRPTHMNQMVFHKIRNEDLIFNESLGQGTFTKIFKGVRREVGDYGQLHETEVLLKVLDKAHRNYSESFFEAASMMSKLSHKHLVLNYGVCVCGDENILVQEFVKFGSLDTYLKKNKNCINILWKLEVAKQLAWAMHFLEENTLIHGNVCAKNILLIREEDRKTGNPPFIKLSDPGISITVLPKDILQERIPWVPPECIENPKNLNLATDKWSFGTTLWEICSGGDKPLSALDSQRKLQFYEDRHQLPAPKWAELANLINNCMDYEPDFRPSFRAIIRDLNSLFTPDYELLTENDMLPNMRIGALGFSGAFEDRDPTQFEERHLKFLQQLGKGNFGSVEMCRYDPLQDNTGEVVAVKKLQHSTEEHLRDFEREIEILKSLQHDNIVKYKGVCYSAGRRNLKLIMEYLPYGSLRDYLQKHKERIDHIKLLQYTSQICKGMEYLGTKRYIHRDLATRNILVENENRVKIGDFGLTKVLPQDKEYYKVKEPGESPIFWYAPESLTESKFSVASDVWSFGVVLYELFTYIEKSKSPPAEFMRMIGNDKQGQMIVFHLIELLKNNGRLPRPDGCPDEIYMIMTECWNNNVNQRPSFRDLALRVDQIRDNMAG
Sequence of FGFR1(h) (P11362 whole entry): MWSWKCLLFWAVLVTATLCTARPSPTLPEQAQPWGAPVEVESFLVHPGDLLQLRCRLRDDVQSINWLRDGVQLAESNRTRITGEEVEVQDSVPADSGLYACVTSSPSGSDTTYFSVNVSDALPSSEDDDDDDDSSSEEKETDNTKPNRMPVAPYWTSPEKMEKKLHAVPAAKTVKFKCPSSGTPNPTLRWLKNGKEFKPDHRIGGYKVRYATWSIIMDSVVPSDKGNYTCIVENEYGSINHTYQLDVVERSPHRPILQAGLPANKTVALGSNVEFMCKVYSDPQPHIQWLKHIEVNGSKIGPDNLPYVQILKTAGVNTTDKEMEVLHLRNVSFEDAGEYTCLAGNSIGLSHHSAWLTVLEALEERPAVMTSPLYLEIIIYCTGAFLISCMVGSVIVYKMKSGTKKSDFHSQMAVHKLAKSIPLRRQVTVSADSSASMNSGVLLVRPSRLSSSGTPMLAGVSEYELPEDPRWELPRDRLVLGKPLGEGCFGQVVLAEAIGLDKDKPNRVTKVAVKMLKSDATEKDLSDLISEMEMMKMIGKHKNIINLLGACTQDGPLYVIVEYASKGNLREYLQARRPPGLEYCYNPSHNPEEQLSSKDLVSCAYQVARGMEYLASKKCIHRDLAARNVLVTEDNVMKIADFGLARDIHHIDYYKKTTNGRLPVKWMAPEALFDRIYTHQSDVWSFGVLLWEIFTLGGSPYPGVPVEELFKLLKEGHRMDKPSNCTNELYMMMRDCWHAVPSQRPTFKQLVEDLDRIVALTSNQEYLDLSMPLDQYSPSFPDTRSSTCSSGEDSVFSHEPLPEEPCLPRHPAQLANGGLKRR

For `Oc1ccc(/C=C/c2cc(O)cc(O)c2)cc1` [Res, resveratrol], the remaining activity at 20 µM on Abl(T315I)(h) turned out to be 100 ± 2%; at CDK3/cyclinE(h), 75 ± 4%; on CDK6/cyclinD3(h), 55 ± 2%; on FGFR1(h), 58 ± 2%; on Flt3(h), 41 ± 1%; at GSK3α(h), 79 ± 4%. Besides, the remaining activity at 20 µM on IR(h) is 71 ± 5%; at Jak2, 27 ± 5%; at MSK1(h), 58 ± 1%; at MSK2(h), 60 ± 1%; at NEK7(h), 116 ± 2%; at PAK6(h), 103 ± 3%. The remaining activity at 20 µM on PDGFRß(h) was found to be 119 ± 2%; at PKCγ(h), 80 ± 8%; at PKG1ß(h), 56 ± 4%; on SAPK2a(h), 100 ± 4%; at TrkA(h), 31 ± 3%; on TrkB(h), 98 ± 1%.
